One sequence from paper PMC9927515, “Discovery and Mechanism of Action of a Novel Antimicrobial Peptide from an Earthworm” (Microbiology Spectrum, 2023) can be followed below.

Where no end group is shown, it is not given here.

A short description of data set [1]: Sensitivity to temperature (residual antibacterial rate). It is filed as physicochemical. As to conditions: water bath 50-100°C for 1 h; residual antibacterial rate by MIC method, OD600; especially in E. coli; Fig. S2a. Here is the method:
(§1) The AMP was treated for 1 h with a water bath heated at 50, 60, 70, 80, 90, or 100°C to evaluate temperature sensitivity, while the pH was adjusted to 2, 4, 6, 8, 10, and 12 and then back to 7.4 after 1 h to evaluate pH sensitivity. The changes in antibacterial activity were determined using the MIC method, as follows: antibacterial rate = [(OD600 positive control − OD600 sample)/(OD600 positive control − OD600 negative control)] × 100, where OD600 is the optical density at 600 nm.
(§2) Table S1 Sequences of 21 synthetic peptides
(§3) Table S3 Sequences and MICs of derivatives of EWAMP.15
(§4) Table S4 Sequences and MICs of Alanine scanning derivatives
(§5) Table S5 Sequences and MICs of Arg and Lys derivatives
(§6) Table S6 Summary of membrane thickness
(§7) Table S7 Primers used in RT-PCR
(§8) Fig. S1 MICs of EWAMP.15 12 -24 derivatives that were replaced in different sites. In
(§9) the X-axis, the number and the letter represent the replaced site and the amino acid residue.
(§10) Fig. S2 Physical stability and in vitro toxicity of EWAMP-R. (a) Residual antibacterial
(§11) rates after water heating for 1 h showing the temperature stability. (b) Residual antibacterial
(§12) rates after acid or alkaline solution treatment showing the pH stability. (c) Hemolytic
(§13) and negative controls. (d) Cell survival rate of LO2 after EWAMP-R treatment. All the cell
(§14) survival rate was above 95%.
(§15) Fig. S3 Root-mean-squared deviation (RMSD) and root-mean-squared fluctuation […]

The nature of data set [2]: Sensitivity to pH (residual antibacterial rate). The format is physicochemical. The conditions noted are these: pH adjusted to 2-12, back to 7.4 after 1 h; residual antibacterial rate by MIC method, OD600; especially in E. coli; Fig. S2b. Here is the method: as §1, §2, §3, §4, §5, §6, §7, §8, §9, §10, §11, §12, §13, §14, §15
A further data set relates to sheep blood. The format is cell-based. Here is the method:
Sterile defibrinated sheep blood (Titan, Shanghai, China) was kept at 4°C and was used within 3 days after being received. Hemolysis assessment was conducted following the method of Liu et al. ([34]). The hemolysis rate was calculated using the following formula: hemolysis rate = [([…] sample - […] blank)/([…] 0.2% Triton X-100 - […] blank)] × 100.

For the sequence RIWWSGGWRRWRW [EWAMP-R], in data set [1], the “stability of antibacterial activity under temperature changes” value was “comparative stability”. Further, in data set [2], the “stability of antibacterial activity under pH changes” value is on record as “comparative stability”. Moreover, the “hemolytic activity: absorbance in treatment groups versus negative controls” value with sheep blood is on record as “not significantly different”.
